Drawing on PubChem BioAssay (NCI), this text covers GI50 and TGI for 25 compounds.

Structures are written as SMILES.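 1) Cells in 96-well plates. 2) Compound, 48 h, 5 concentrations. 3) Linear interpolation between surrounding doses. 4) Unreached endpoint = highest concentration. GI50: concentration for 50% inhibition of growth. The concentration for full growth arrest is given as TGI.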 Bounds are passed on as bounds.

What all share (assay): NCI anticancer screen, dose series, 48 h
The subject of assay [1] is COLO 205 colon.
Assay [2] relates to HCC-2998 colon.
Assay [3] deals with HCT-116 colon.
Assay [4] deals with HS 578T breast.
Assay [5] has as its system IGROV1 ovarian.
The test system of assay [6] is MALME-3M melanoma.
Assay [7] has as its system MDA-MB-231 breast.
Assay [8] deals with OVCAR-8 ovarian.
The subject of assay [9] is SK-MEL-2 melanoma.
In assay [10] the test system is HL-60(TB) leukemia.

Turning to `Cn1c2ccccc2c(=Nc2ccccc2)c2c3ccccc3[nH]c21`, the GI50 was 4.53 µM in [1]; 3.23 µM in assay [2]; 1.26 µM in assay [3]; 1.46 µM in [4]; 1.64 µM in assay [5]; 0.345 µM in [6]. The GI50 in [7] is 1.62 µM; in assay [8], 1.85 µM; in [9], 3.78 µM. In addition, the TGI in assay [1] is 18.8 µM; in assay [2] it was 46.4 µM; in assay [3], 2.52 µM; in assay [4], 4.58 µM; in assay [5], greater than 100 µM; in assay [6], 1.8 µM. For the same compound, the figures for the TGI in assay [7], in [8] and in [9] were 3.11 µM, 10.2 µM and greater than 100 µM, respectively.
With `Nc1[nH]c(=O)ncc1F`, the TGI in assay [1], in assay [2], in [3], in [10], in assay [4] and in assay [5] was greater than 100 µM each time. Besides, the TGI in [6], in assay [8] and in [9] was greater than 100 µM in each case.
In the case of `CCCCCCCCCCCCn1c(C)nc2ccccc21`, the GI50 was 13.2 µM in [1]; 2.6 µM in assay [2]; 0.712 µM in [3]; 2.54 µM in assay [10]; 27.7 µM in assay [4]; 14.7 µM in [5]. For the same compound, the GI50 in assay [6] is 16.2 µM; in assay [7], 15.3 µM. Further, the TGI stood at 27.4 µM in assay [1]; 18 µM in assay [2]; 13 µM in assay [3]; 18.5 µM in assay [10]; 48.3 µM in [4]; 28.3 µM in assay [5]. The TGI stood at 33.6 µM in assay [6] and 34.8 µM in assay [7].
Consider `COc1ccc(SC2c3cc(OC)c(OC)cc3Oc3nc(N)c(C#N)c(N)c32)cc1` (stereo not drawn), for which the GI50 in [1] was 1.29 µM; in assay [2], 1.72 µM; in assay [3], 0.68 µM; in assay [5] it was 0.762 µM; in [6], 1.46 µM; in assay [7] it was 1.43 µM. For the same compound, the results for the GI50 in assay [8] and in assay [9] were 1.69 µM and 1.36 µM, respectively. Moreover, the TGI stood at 2.65 µM in [1]; 3.12 µM in assay [2]; 2.16 µM in [3]; 2.37 µM in [5]; 2.89 µM in assay [6]; 2.81 µM in [7]. Further, the TGI in assay [8] worked out at 3.18 µM; in assay [9] it was 2.8 µM.
As to `OCC(O)C(O)c1nn(-c2ccccc2)c2nc3cc(Cl)c(Cl)cc3nc12` (stereo not drawn), the TGI in [1] came out at 86.4 µM; in assay [2], 86.5 µM; in assay [3], 54.4 µM; in [10], 50.9 µM; in [5], 90.7 µM; in assay [6], 44.1 µM. In addition, the TGI was found to be 69.2 µM in assay [8] and 74.1 µM in assay [9].
Consider `S=c1nc(-c2ccccc2)oc(=NC2CCCCC2)n1C1CCCCC1`, for which the GI50 in assay [1] was 2.11 µM; in assay [2], 3.79 µM; in [3] it was 4.19 µM; in [10] it was 1.9 µM; in assay [4], 3.3 µM; in assay [5] it was 3 µM. Moreover, the GI50 in [7] was 3.69 µM; in assay [8] it was 3.22 µM; in assay [9], 4.51 µM. The TGI was 4.22 µM in assay [1]; 13.7 µM in [2]; 17.1 µM in assay [3]; 5.29 µM in assay [10]; 14.5 µM in assay [4]; 8.13 µM in [5]. Further, the TGI in assay [7] was 15.9 µM; in [8] it was 18.5 µM; in [9] it was 17.8 µM.
As for `NCCCCCS(=O)(=O)O`, the TGI in assay [1], in assay [2], in assay [3], in [10], in [5] and in assay [6] was greater than 100 µM throughout. Further, the TGI in [8] and in [9] was greater than 100 µM each time.
In the case of `COc1ccc2cccc(C(=O)c3ccc(C)c4c3CCC4)c2c1`, the TGI is 68.3 µM in assay [1]; 43.1 µM in [2]; greater than 100 µM in assay [3]; 44.7 µM in assay [10]; 99.2 µM in assay [5]; 72.8 µM in assay [6]. The figures for the TGI in assay [8] and in [9] were greater than 100 µM and 98.2 µM, respectively.
With `O=C(/C=C/c1ccc(C(F)(F)F)cc1)c1ccc(Nc2nc(NCCO)nc(NCCO)n2)cc1`, the GI50 in [1] was 2.05 µM; in assay [2], 3.25 µM; in [3], 1.79 µM; in assay [10] it was 2.97 µM; in assay [4] it was 5.44 µM; in assay [5] it was 3 µM. Moreover, the GI50 in [6] is 4.95 µM; in assay [7] it was 3.29 µM; in [8], 3.31 µM. For the same compound, the TGI in [1] is 4.22 µM; in assay [2], 11.2 µM; in assay [3], 3.9 µM; in [10], 10.3 µM; in assay [4], 54 µM; in assay [5], 9.51 µM. The TGI is 18.8 µM in assay [6], 13.8 µM in assay [7] and 20.2 µM in assay [8].
With `CCOC(=O)c1sc(-c2ccc(OS(=O)(=O)c3cccs3)c(C=O)c2)nc1C`, the GI50 in assay [1] is 2.01 µM; in assay [3], 0.732 µM; in assay [10] it was 1.89 µM; in assay [4], 2.1 µM; in assay [5], 1.29 µM; in [6], 2.22 µM. In addition, the GI50 in assay [9] is 2.06 µM. The TGI in assay [1] came out at 3.9 µM; in assay [3], 2.15 µM; in [10], 4.93 µM; in assay [4], 5.3 µM; in assay [5], 3.41 µM; in assay [6], 5.69 µM. In assay [9], this compound showed a TGI of 4.78 µM.
Turning to `Cc1ccc(S(=O)(=O)N(/N=C(\N)Oc2ccc(Cl)cc2)C(=N)Oc2ccc(Cl)cc2)cc1`, the TGI in [1], in [2], in [3], in assay [10], in assay [5] and in [6] was greater than 100 µM in each case. The TGI in assay [8] and in [9] was greater than 100 µM each time.
As to `CCN(CC)CCN1C(=O)c2c(c(C)c3c(oc4cc(O)ccc43)c2C)C1=O`, the GI50 in [1] is 2.18 µM; in assay [2], 1.62 µM; in assay [5], 1.6 µM; in assay [6], 1.56 µM; in assay [7], 1.74 µM; in assay [8], 2.11 µM. The GI50 in assay [9] is 2.35 µM. Also, the TGI in assay [1] turned out to be 5.77 µM; in assay [2], 3.03 µM; in assay [5] it was 3.17 µM; in assay [6], 2.97 µM; in assay [7], 3.36 µM; in assay [8], 5.72 µM. The compound further returned a TGI in assay [9] of 5.27 µM.
For the compound `O=C(c1ccccc1)C1C(C(=O)c2ccccc2)N1Cc1ccccc1` (stereo not drawn), the TGI was 58.3 µM in [1]; greater than 100 µM in assay [2]; greater than 100 µM in [4]; greater than 100 µM in [5]; 77.3 µM in assay [6]; greater than 100 µM in assay [7]. Moreover, the TGI in assay [8] is greater than 100 µM; in assay [9], 51.5 µM.
As for `O=C(c1cc(O)ccc1O)c1ccccc1C(Cl)(Cl)Cl`, the TGI in assay [1] was greater than 100 µM; in assay [2], greater than 100 µM; in assay [3] it was greater than 100 µM; in assay [10], 97.3 µM; in assay [5], greater than 100 µM; in [6], greater than 100 µM. Further, the TGI in assay [8] and in [9] was greater than 100 µM in each case.
With `O=c1[nH]cc(CS(=O)(=O)Cc2c[nH]c(=O)[nH]c2=O)c(=O)[nH]1`, the TGI in assay [1], in assay [3], in assay [4], in [5], in [6] and in assay [7] was greater than 100 µM each time. For the same compound, the TGI in [8] and in assay [9] was greater than 100 µM each time.
Consider `N/C(=N\NS(=O)(=O)c1ccccc1)Oc1ccc(Cl)cc1`, for which the TGI is greater than 100 µM in assay [1]; greater than 100 µM in assay [2]; greater than 100 µM in [3]; 60.6 µM in [10]; greater than 100 µM in assay [5]; greater than 100 µM in assay [6]. In addition, the TGI in [8] and in [9] was greater than 100 µM each time.
Regarding `Cn1c2c([N+](=O)[O-])[se]nc2c(=O)n1-c1ccc([N+](=O)[O-])cc1`, the TGI in [1] is 4.23 µM; in assay [2], 3.62 µM; in [3], 3.39 µM; in assay [10], greater than 23.1 µM; in assay [5] it was 2.59 µM; in assay [6], 3.23 µM. Moreover, the TGI in assay [8] was 2.72 µM; in assay [9], 11.2 µM.
As for `COC(=O)/C=C/C(=O)C1C(C(=O)OC)C2(C(=O)OC)CCC1(C(=O)OC)N2` (stereo not drawn), the TGI in [1], in assay [2], in assay [3], in [10], in assay [5] and in assay [6] was greater than 100 µM throughout. The TGI in assay [8] and in [9] was greater than 100 µM throughout.
Take `Cc1cnc[nH]c1=O`: the TGI in assay [1], in assay [2], in assay [3], in [10], in assay [5] and in [6] was greater than 100 µM throughout. The TGI in assay [8] and in assay [9] was greater than 100 µM each time.
In the case of `CCOC1OCCCC1Br` (stereo not drawn), the TGI in assay [1], in assay [2], in assay [3], in [4], in [5] and in assay [6] was greater than 100 µM each time. The TGI in assay [7], in [8] and in assay [9] was greater than 100 µM in each case.
Turning to `CC#C[C@@]1(O)CCCC[C@@H]1O`, the TGI in assay [1], in assay [2], in [3], in assay [10], in [5] and in [6] was greater than 100 µM throughout. In addition, the TGI in assay [8] and in assay [9] was greater than 100 µM each time.
Take `O=NC1c2cccc3cccc(c23)C1N=O` (stereo not drawn): the TGI in assay [1] came out at 17.2 µM; in [3] it was 3.81 µM; in assay [10] it was 6.61 µM; in [4], 75.7 µM; in [5], 3.19 µM; in assay [8] it was 6.65 µM.
In the case of `COC(=O)C1=C(OC)c2cc3c(cc2C(c2cc(OC)c(OC)c(OC)c2)C1C(=O)OC)OCO3` (stereo not drawn), the TGI in assay [1], in [2], in [3], in assay [10], in assay [5] and in assay [6] was greater than 100 µM in each case. Moreover, the TGI in [8] and in [9] was greater than 100 µM in each case.
For the compound `COc1ccc(-c2oc(=O)ccc2C#Cc2cc(OC)c(OC)c(OC)c2)cc1O`, the GI50 in assay [1] was 89.5 µM; in [3], 18.6 µM; in [10], 8.96 µM; in assay [4] it was 30.2 µM; in assay [5], 39.9 µM; in [6] it was 71.8 µM. Further, the GI50 in assay [7] was 11.6 µM; in [8], 35.2 µM; in [9] it was 28 µM. Besides, the TGI in [1] is greater than 100 µM; in assay [3] it was greater than 100 µM; in [10], 35.7 µM; in assay [4], greater than 100 µM; in [5], greater than 100 µM; in assay [6], greater than 100 µM. The TGI in [7], in [8] and in [9] was greater than 100 µM each time.
Consider `COc1ccc(/C=C/c2c(C(=O)/C=C/c3ccc(Cl)cc3)c(C)nc3ccccc23)cc1`, for which the GI50 was 2.13 µM in assay [1]; 1.57 µM in assay [2]; 0.799 µM in assay [3]; 2.15 µM in assay [10]; 0.663 µM in assay [5]; 1.69 µM in [6]. The GI50 in [7] was 2.38 µM; in assay [8], 2.43 µM; in assay [9], 1.83 µM. Further, the TGI is 5.29 µM in assay [1]; 3.06 µM in assay [2]; 2.19 µM in assay [3]; 5.62 µM in assay [10]; 2.54 µM in [5]; 3.21 µM in [6]. The TGI in [7] amounted to 7.82 µM; in assay [8] it was 9.13 µM; in assay [9], 4.06 µM.
